From patent publication US20100041089A1, “IMPROVED METHOD FOR DETECTING CHEMICAL […]” (priority 2006, published 2010)

System: yeast genes (expressed mRNA)
Assay: DNA chip measurement of expressed mRNA of yeast genes after culture with a toxic chemical substance
Format: cell-based, Saccharomyces cerevisiae S288C
Conditions: for level of expressed mRNA in the presence of chemical substance / level in the absence of chemical substance: cultured two hours with the chemical substance; for The level of expressed mRNA in the presence of chemical substance/The level of expressed mRNA in the absence of chemical substance: cultured two hours with substance
Description: Yeast (Saccharomyces cerevisiae S288C (a SUC2mal mel gap2 CUP1)) were cultured at 25° C. on YPD medium (yeast extract 1%, polypeptone 2%, glucose 2%). One of toxic chemical substances was added to the cell at logarithmic growth phase, and the cell was further cultured for two hours. Cell was cultured without any chemical substance in the same condition, and was used as a control. Concentrations of the chemical substances were defined to inhibit the growth of the yeast but not lead to death.
After the completion of cultivation, the culture was centrifuged to collect the cells. To the cells, sodium acetate buffer (50 mM sodium acetate, 10 mM EDTA, 1% SDS) was added, and the mixture was shaken at 65° C. for five minutes, followed by returning to room temperature, and obtaining the supernatant, which procedure was repeated two times. To the supernatant, ½ amount of a solution of phenol/chloroform (1:1) was added, and the mixture was centrifuged to give a supernatant, an equal amount of chloroform was added, and the mixture was centrifuged to give a supernatant. To the supernatant, an equal amount of isopropanol containing 0.3 M sodium acetate was added, and the mixture was allowed to stand at room temperature for 30 minutes, after which the mixture was centrifuged to give sediment of the whole RNAs. Seventy % ethanol was added to the sediment, and the mixture was again centrifuged to give sediment, which was then dried and dissolved in water. mRNA was isolated from the whole RNAs as followings. In view of the fact that a poly A chain is attached to the 3′ terminus of mRNA, a polynucleotide having a poly T structure which was immobilized on the surface of latex beads was used to trap the mRNA, and then the mRNA was washed and eluted with spine column (Oligotex-dT30<Super>mRNA Purification Kit, Takara). Reverse transcription of the mRNA was conducted with a reverse transcriptase (Super Script II Reverse Transcriptase; catalogue No. 18064-014, GibcoBRL) using fluorescence-labeled nucleotides to give cDNAs that were introduced with Cy3-dUTP or Cy5-dUTP during the reverse transcription.
The labeled cDNAs were dissolved in TE buffer (10 mM Tris-HCl/1 mM EDTA, pH 8.0), and the solution was dropped on the DNA chip containing the whole genes of yeast (DNA Chip Research Inc. Japan) so that the cDNAs were hybridized on the DNA chip at 65° C. for over 12 hours. The fluoresces intensity of the DNA chip was read with a scanner, and the ratio relative to the fluorescence intensity resulting from the absence of chemical substance was estimated as the following, which is shown in Tables 1 to 9.
In the Tables, “Intensity” indicated in the rightmost column is a value of the level of expressed mRNA of each gene in control cells as divided by the average level of the expressions of the whole genes. A gene of which mRNA level is lower in control, and is higher in cases of addition of chemical substance, is especially useful in the detection of toxic substances.
Here, when a ratio of an amount of mRNA expressed in the presence of the chemical substance to an amount of mRNA expressed in the absence of the chemical substance is two or more, then it is considered significant.

Structure (SMILES): [Cl][Cd][Cl] [(2), CdCl2]
- The level of expressed mRNA in the presence of chemical substance/The level of expressed mRNA in the absence of chemical substance, yeast gene YBR036C (gene YBR036C, Metabolism protein genes, DNA chip fluorescence ratio): 1.7
- The level of expressed mRNA in the presence of chemical substance/The level of expressed mRNA in the absence of chemical substance, yeast gene YBR298C (gene YBR298C, Metabolism protein genes, DNA chip fluorescence ratio): 1.0
- The level of expressed mRNA in the presence of chemical substance/The level of expressed mRNA in the absence of chemical substance, yeast gene YDL067C (gene YDL067C (mitochondria-located protein gene), yeast cultured two hours with chemical substance, DNA chip fluorescence ratio to control): 1.0
- The level of expressed mRNA in the presence of chemical substance/The level of expressed mRNA in the absence of chemical substance, yeast gene YDL078C (gene YDL078C, Metabolism protein genes, DNA chip fluorescence ratio): 1.1
- The level of expressed mRNA in the presence of chemical substance/The level of expressed mRNA in the absence of chemical substance, yeast gene YDL215C (gene YDL215C, Metabolism protein genes, DNA chip fluorescence ratio): 1.5
- The level of expressed mRNA in the presence of chemical substance/The level of expressed mRNA in the absence of chemical substance, yeast gene YDR079W (gene YDR079W (mitochondria-located protein gene), yeast cultured two hours with chemical substance, DNA chip fluorescence ratio to control): 1.1
- The level of expressed mRNA in the presence of chemical substance/The level of expressed mRNA in the absence of chemical substance, yeast gene YDR297W (gene YDR297W, Metabolism protein genes, DNA chip fluorescence ratio): 0.8
- The level of expressed mRNA in the presence of chemical substance/The level of expressed mRNA in the absence of chemical substance, yeast gene YDR387C (gene YDR387C, Metabolism protein genes, DNA chip fluorescence ratio): 0.9
- The level of expressed mRNA in the presence of chemical substance/The level of expressed mRNA in the absence of chemical substance, yeast gene YGL035C (gene YGL035C, Metabolism protein genes, DNA chip fluorescence ratio): 1.4
- The level of expressed mRNA in the presence of chemical substance/The level of expressed mRNA in the absence of chemical substance, yeast gene YGR062C (gene YGR062C (mitochondria-located protein gene), yeast cultured two hours with chemical substance, DNA chip fluorescence ratio to control): 1.0
- The level of expressed mRNA in the presence of chemical substance/The level of expressed mRNA in the absence of chemical substance, yeast gene YGR287C (gene YGR287C, Metabolism protein genes, DNA chip fluorescence ratio): 1.0
- The level of expressed mRNA in the presence of chemical substance/The level of expressed mRNA in the absence of chemical substance, yeast gene YJL070C (gene YJL070C, Metabolism protein genes, DNA chip fluorescence ratio): 0.9
- The level of expressed mRNA in the presence of chemical substance/The level of expressed mRNA in the absence of chemical substance, yeast gene YJL096W (gene YJL096W (mitochondria-located protein gene), yeast cultured two hours with chemical substance, DNA chip fluorescence ratio to control): 1.0
- The level of expressed mRNA in the presence of chemical substance/The level of expressed mRNA in the absence of chemical substance, yeast gene YJL180C (gene YJL180C (mitochondria-located protein gene), yeast cultured two hours with chemical substance, DNA chip fluorescence ratio to control): 1.6
- The level of expressed mRNA in the presence of chemical substance/The level of expressed mRNA in the absence of chemical substance, yeast gene YKR009C (gene YKR009C, Metabolism protein genes, DNA chip fluorescence ratio): 1.2
- The level of expressed mRNA in the presence of chemical substance/The level of expressed mRNA in the absence of chemical substance, yeast gene YLR295C (gene YLR295C (mitochondria-located protein gene), yeast cultured two hours with chemical substance, DNA chip fluorescence ratio to control): 1.1
- The level of expressed mRNA in the presence of chemical substance/The level of expressed mRNA in the absence of chemical substance, yeast gene YLR351C (gene YLR351C, Metabolism protein genes, DNA chip fluorescence ratio): 1.4
- The level of expressed mRNA in the presence of chemical substance/The level of expressed mRNA in the absence of chemical substance, yeast gene YLR375W (gene YLR375W, Metabolism protein genes, DNA chip fluorescence ratio): 1.5
- The level of expressed mRNA in the presence of chemical substance/The level of expressed mRNA in the absence of chemical substance, yeast gene YMR023C (gene YMR023C (mitochondria-located protein gene), yeast cultured two hours with chemical substance, DNA chip fluorescence ratio to control): 1.3
- The level of expressed mRNA in the presence of chemical substance/The level of expressed mRNA in the absence of chemical substance, yeast gene YMR267W (gene YMR267W (mitochondria-located protein gene), yeast cultured two hours with chemical substance, DNA chip fluorescence ratio to control): 1.8
- The level of expressed mRNA in the presence of chemical substance/The level of expressed mRNA in the absence of chemical substance, yeast gene YMR267W (gene YMR267W, Metabolism protein genes, DNA chip fluorescence ratio): 1.8
- The level of expressed mRNA in the presence of chemical substance/The level of expressed mRNA in the absence of chemical substance, yeast gene YMR278W (gene YMR278W, Metabolism protein genes, DNA chip fluorescence ratio): 1.7
- The level of expressed mRNA in the presence of chemical substance/The level of expressed mRNA in the absence of chemical substance, yeast gene YMR293C (gene YMR293C, Metabolism protein genes, DNA chip fluorescence ratio): 1.5
- The level of expressed mRNA in the presence of chemical substance/The level of expressed mRNA in the absence of chemical substance, yeast gene YNL073W (gene YNL073W (mitochondria-located protein gene), yeast cultured two hours with chemical substance, DNA chip fluorescence ratio to control): 1.4
- The level of expressed mRNA in the presence of chemical substance/The level of expressed mRNA in the absence of chemical substance, yeast gene YNR072W (gene YNR072W, Metabolism protein genes, DNA chip fluorescence ratio): 1.5
- The level of expressed mRNA in the presence of chemical substance/The level of expressed mRNA in the absence of chemical substance, yeast gene YOL096C (gene YOL096C, Metabolism protein genes, DNA chip fluorescence ratio): 1.0
- The level of expressed mRNA in the presence of chemical substance/The level of expressed mRNA in the absence of chemical substance, yeast gene YOR180C (gene YOR180C, Metabolism protein genes, DNA chip fluorescence ratio): 1.1
- The level of expressed mRNA in the presence of chemical substance/The level of expressed mRNA in the absence of chemical substance, yeast gene YOR316C (gene YOR316C (mitochondria-located protein gene), yeast cultured two hours with chemical substance, DNA chip fluorescence ratio to control): 2.5
- The level of expressed mRNA in the presence of chemical substance/The level of expressed mRNA in the absence of chemical substance, yeast gene YOR363C (gene YOR363C, Metabolism protein genes, DNA chip fluorescence ratio): 2.0
- The level of expressed mRNA in the presence of chemical substance/The level of expressed mRNA in the absence of chemical substance, yeast gene YPL040C (gene YPL040C (mitochondria-located protein gene), yeast cultured two hours with chemical substance, DNA chip fluorescence ratio to control): 1.0
- The level of expressed mRNA in the presence of chemical substance/The level of expressed mRNA in the absence of chemical substance, yeast gene YPL134C (gene YPL134C (mitochondria-located protein gene), yeast cultured two hours with chemical substance, DNA chip fluorescence ratio to control): 1.0
- The level of expressed mRNA in the presence of chemical substance/The level of expressed mRNA in the absence of chemical substance, yeast gene YPR184W (gene YPR184W, Metabolism protein genes, DNA chip fluorescence ratio): 1.4
- level of expressed mRNA in the presence of chemical substance / level in the absence of chemical substance (yeast gene YAL018C): 1.9
- The level of expressed mRNA in the presence of chemical substance/The level of expressed mRNA in the absence of chemical substance (yeast gene YAL053W): 0.9
- level of expressed mRNA in the presence of chemical substance / level in the absence of chemical substance (yeast gene YAR047C): 1.7
- level of expressed mRNA in the presence of chemical substance / level in the absence of chemical substance (yeast gene YAR064W): 0.9
- level of expressed mRNA in the presence of chemical substance / level in the absence of chemical substance (yeast gene YBL044W): 2.7
- The level of expressed mRNA in the presence of chemical substance/The level of expressed mRNA in the absence of chemical substance (yeast gene YBL048W): 7.9
- The level of expressed mRNA in the presence of chemical substance/The level of expressed mRNA in the absence of chemical substance (yeast gene YBL107C): 1.1
- level of expressed mRNA in the presence of chemical substance / level in the absence of chemical substance (yeast gene YBR012C): 1.7
- level of expressed mRNA in the presence of chemical substance / level in the absence of chemical substance (yeast gene YBR066C): 1.3
- level of expressed mRNA in the presence of chemical substance / level in the absence of chemical substance (yeast gene YBR124W): 1.4
- level of expressed mRNA in the presence of chemical substance / level in the absence of chemical substance (yeast gene YBR162C): 0.5
- level of expressed mRNA in the presence of chemical substance / level in the absence of chemical substance (yeast gene YBR287W): 1.9
- level of expressed mRNA in the presence of chemical substance / level in the absence of chemical substance (yeast gene YCL042W): 2.5
- level of expressed mRNA in the presence of chemical substance / level in the absence of chemical substance (yeast gene YCL056C): 1.4
- level of expressed mRNA in the presence of chemical substance / level in the absence of chemical substance (yeast gene YCR007C): 1.6
- level of expressed mRNA in the presence of chemical substance / level in the absence of chemical substance (yeast gene YDL046W): 1.4
- The level of expressed mRNA in the presence of chemical substance/The level of expressed mRNA in the absence of chemical substance (yeast gene YDL072C): 1.1
- The level of expressed mRNA in the presence of chemical substance/The level of expressed mRNA in the absence of chemical substance (yeast gene YDL204W): 1.9
- The level of expressed mRNA in the presence of chemical substance/The level of expressed mRNA in the absence of chemical substance (yeast gene YDL222C): 1.1
- level of expressed mRNA in the presence of chemical substance / level in the absence of chemical substance (yeast gene YDR090C): 3.0
